# Results: publication PMC7827406, “Structure–Activity Relationship (SAR) Study of Spautin-1 to Entail the Discovery of Novel NEK4 Inhibitors” (International Journal of Molecular Sciences, 2021)
# Read-outs that look alike come from different tables or passages of the source.
# Legend:
# Assay in all cases: biochemical
# Parameters in all cases: Eurofins KinaseProfiler full panel at Km ATP, residual kinase activity (%) relative to DMSO
# CHK2(R145W)(h) = target: T1, CHK2(R145W)(h) (Homo sapiens, UniProt O96017, R145W)
# T1 construct: gene CHEK2
# T1 sequence (O96017 whole entry R145W): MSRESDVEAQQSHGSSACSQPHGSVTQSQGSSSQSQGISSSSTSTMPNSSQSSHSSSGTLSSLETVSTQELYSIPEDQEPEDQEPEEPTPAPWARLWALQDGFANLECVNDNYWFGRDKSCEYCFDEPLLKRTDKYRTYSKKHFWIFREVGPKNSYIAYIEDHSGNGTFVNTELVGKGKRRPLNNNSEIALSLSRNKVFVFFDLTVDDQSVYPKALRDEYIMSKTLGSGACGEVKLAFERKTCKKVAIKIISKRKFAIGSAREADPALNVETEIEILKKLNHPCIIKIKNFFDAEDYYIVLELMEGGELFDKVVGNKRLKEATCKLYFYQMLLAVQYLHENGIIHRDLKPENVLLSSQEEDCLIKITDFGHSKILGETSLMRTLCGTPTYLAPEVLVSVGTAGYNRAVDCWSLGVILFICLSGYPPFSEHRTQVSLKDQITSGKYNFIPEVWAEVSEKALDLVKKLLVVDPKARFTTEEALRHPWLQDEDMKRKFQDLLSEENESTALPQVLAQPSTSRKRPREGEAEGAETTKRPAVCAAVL
# Method in brief: (§1)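 Radiometric kinase activity assays were run with ATP at Km and compounds at 10 µM, and remaining activity (%) was reported. A separate competitive binding screen measured DNA-tagged kinase displaced from immobilized active-site ligands by qPCR, giving percent kinase still bound at 10 µM compound in DMSO.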
# CDKL3(h) = CDKL3(h) (Homo sapiens, UniProt Q8IVW4)
# Chain of CDKL3(h) (Q8IVW4 whole entry): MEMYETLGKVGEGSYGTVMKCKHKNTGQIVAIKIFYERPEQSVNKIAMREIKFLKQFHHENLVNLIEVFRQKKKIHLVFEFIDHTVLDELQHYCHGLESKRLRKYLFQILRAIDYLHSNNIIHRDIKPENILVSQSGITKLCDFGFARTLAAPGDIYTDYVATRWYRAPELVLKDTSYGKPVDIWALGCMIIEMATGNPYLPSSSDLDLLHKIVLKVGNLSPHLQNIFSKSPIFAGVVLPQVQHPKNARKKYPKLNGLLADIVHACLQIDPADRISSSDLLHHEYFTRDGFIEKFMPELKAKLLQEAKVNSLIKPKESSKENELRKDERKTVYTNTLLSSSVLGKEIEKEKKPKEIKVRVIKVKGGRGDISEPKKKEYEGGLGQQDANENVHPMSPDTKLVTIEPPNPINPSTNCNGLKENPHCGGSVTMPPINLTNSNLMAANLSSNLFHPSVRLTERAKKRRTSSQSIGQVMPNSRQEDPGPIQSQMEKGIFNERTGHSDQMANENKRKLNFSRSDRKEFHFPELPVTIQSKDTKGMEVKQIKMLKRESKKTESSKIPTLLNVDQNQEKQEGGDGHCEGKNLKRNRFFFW
# Method in brief: as §1
# NEK1(h) = target: T2, NEK1(h) (Homo sapiens, UniProt Q96PY6)
# T2 sequence (Q96PY6 1-1258): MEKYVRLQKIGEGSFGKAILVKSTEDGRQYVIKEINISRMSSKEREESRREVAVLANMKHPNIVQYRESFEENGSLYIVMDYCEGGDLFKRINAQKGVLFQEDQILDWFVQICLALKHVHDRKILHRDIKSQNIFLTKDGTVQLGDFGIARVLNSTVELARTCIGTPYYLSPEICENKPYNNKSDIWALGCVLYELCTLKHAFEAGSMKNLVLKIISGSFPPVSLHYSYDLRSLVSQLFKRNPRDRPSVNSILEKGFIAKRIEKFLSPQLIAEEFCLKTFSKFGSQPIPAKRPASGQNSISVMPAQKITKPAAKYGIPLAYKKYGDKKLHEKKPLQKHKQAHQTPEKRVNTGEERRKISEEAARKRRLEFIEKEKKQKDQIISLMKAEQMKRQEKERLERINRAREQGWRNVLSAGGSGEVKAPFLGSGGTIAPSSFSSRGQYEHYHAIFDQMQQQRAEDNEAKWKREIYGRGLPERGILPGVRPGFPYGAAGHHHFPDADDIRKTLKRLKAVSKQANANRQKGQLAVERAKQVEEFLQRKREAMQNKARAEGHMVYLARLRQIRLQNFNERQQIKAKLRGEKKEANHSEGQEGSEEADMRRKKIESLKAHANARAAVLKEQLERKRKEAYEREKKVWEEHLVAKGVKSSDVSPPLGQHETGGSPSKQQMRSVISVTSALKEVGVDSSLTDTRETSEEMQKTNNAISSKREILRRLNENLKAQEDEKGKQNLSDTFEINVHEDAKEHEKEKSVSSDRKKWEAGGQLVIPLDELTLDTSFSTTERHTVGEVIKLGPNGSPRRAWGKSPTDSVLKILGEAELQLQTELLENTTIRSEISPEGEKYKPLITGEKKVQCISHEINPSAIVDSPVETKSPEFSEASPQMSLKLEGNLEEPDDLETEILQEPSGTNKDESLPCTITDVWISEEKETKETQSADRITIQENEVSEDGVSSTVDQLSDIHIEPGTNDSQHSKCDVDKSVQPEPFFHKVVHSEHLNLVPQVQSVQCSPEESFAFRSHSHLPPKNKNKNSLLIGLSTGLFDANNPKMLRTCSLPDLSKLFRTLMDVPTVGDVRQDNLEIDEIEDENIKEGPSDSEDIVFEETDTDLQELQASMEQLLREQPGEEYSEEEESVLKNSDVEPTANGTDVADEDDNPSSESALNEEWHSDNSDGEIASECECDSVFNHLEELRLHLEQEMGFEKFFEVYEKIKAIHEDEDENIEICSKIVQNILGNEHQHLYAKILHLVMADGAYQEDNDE
# Method in brief: as §1
# MuSK(h) = target: T3, MuSK(h) (Homo sapiens, UniProt O15146)
# T3 sequence (O15146 1-869): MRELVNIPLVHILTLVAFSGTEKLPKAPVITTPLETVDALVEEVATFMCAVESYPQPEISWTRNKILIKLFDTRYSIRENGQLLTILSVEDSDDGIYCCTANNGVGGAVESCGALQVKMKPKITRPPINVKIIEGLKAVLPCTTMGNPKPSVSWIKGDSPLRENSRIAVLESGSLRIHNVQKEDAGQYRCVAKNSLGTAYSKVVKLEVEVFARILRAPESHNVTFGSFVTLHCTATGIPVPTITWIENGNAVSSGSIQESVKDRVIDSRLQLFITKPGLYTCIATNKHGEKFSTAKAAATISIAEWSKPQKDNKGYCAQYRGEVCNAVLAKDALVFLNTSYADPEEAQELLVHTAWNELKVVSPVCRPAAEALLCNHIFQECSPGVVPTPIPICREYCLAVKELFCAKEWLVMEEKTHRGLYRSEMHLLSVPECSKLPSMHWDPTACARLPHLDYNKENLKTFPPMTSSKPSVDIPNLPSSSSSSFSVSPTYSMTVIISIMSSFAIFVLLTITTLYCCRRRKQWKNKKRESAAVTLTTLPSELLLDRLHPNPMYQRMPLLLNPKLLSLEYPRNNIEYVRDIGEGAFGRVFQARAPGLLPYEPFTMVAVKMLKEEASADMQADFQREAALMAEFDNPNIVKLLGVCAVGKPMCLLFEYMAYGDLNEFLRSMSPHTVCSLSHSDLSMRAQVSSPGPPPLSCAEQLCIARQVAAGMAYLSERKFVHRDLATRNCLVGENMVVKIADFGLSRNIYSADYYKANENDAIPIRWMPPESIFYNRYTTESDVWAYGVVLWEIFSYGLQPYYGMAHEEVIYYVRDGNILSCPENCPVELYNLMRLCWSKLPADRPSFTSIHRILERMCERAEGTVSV
# Method in brief: as §1
# [1] = read-out: Residual activity (%) 5ay
# [2] = read-out: Residual activity (%) Spautin-1 5aa
# [3] = read-out: Residual activity (%) 5at
# [4] = read-out: Residual activity (%) 5as
smiles,measurement,setting,value
"COc1ccc2ncnc(Nc3cccc(F)c3)c2c1 [5ay, N-(3-Fluorophenyl)-6-Methoxy-4-Quinazolinamine]",remaining activity at 10 µM,CHK2(R145W)(h); [1],87%
same,remaining activity at 10 µM,CDKL3(h); [1],29%
same,remaining activity at 10 µM,NEK1(h); [1],60%
same,remaining activity at 10 µM,MuSK(h); [1],70%
"Fc1ccc(CNc2ncnc3ccc(F)cc23)cc1 [5aa, 6-Fluoro-N-(4-fluorobenzyl)-4-Quinazolinamine]",remaining activity at 10 µM,CHK2(R145W)(h); [2],101%
same,remaining activity at 10 µM,CDKL3(h); [2],77%
same,remaining activity at 10 µM,NEK1(h); [2],81%
same,remaining activity at 10 µM,MuSK(h); [2],74%
"Fc1ccc2ncnc(NCCc3ccc(Cl)cc3)c2c1 [5at, N-[2-(4-Chlorophenyl)Ethyl]-6-Fluoro-4-Quinazolinamine]",remaining activity at 10 µM,CHK2(R145W)(h); [3],91%
same,remaining activity at 10 µM,CDKL3(h); [3],71%
same,remaining activity at 10 µM,NEK1(h); [3],70%
same,remaining activity at 10 µM,MuSK(h); [3],97%
"Fc1ccc(CCNc2ncnc3ccc(F)cc23)cc1 [5as, 6-Fluoro-N-[2-(4-Fluorophenyl)Ethyl]-4-Quinazolinamine]",remaining activity at 10 µM,CHK2(R145W)(h); [4],90%
same,remaining activity at 10 µM,CDKL3(h); [4],65%
same,remaining activity at 10 µM,NEK1(h); [4],97%
same,remaining activity at 10 µM,MuSK(h); [4],81%
